The test system of series [1] is MCF7. As to the kind of experiment: Antiproliferative activity against human MCF7 cells assessed as inhibition of cell growth at 50 uM by MTT assay relative to control. Format: functional.
The test system of a further series is HepG2. As to the kind of experiment: Antiproliferative activity against human HepG2 cells assessed as inhibition of cell growth by MTT assay. On the technique in general: Tetrazolium assays rely on reduction of a dye to a coloured formazan, in cell work by metabolically active cells.
Series [2] has as its system MCF7. As to the kind of experiment: cells. The note with it: Homo sapiens, MCF7, 24 h.
Description: Antiproliferative activity against human MCF7 cells assessed as inhibition of cell growth incubated for 24 hrs by MTT assay
Series [3] is described as follows: Cytotoxicity in human MCF-10A cells assessed as inhibition of cell growth by MTT assay. Format: toxicity, cell-based.
Series [4] is described as follows: Cytotoxicity in HaCaT cells assessed as inhibition of cell growth by MTT assay. The note with it: human. Format: toxicity, cell-based.
A further series deals with HCT-116. As to the kind of experiment: Antiproliferative activity against human HCT-116 cells assessed as inhibition of cell growth by MTT assay.
For series [5], the target named is Nuclear receptor subfamily 4immunitygroup A member 1 (Homo sapiens, UniProt P22736). As to the kind of experiment: Binding affinity to Nur77 LB domain (unknown origin) assessed as dissociation constant up to 100 uM by fluorescence titration assay.
The subject of the next series is T47D. As to the kind of experiment: cells. The note with it: Homo sapiens, 24 h.
A further series deals with MDA-MB-231. As to the kind of experiment: cells. The note with it: Homo sapiens, MDA-MB-231, 24 h.

Sequence of Nuclear receptor subfamily 4immunitygroup A member 1 (P22736 whole entry, the tested form may be a part): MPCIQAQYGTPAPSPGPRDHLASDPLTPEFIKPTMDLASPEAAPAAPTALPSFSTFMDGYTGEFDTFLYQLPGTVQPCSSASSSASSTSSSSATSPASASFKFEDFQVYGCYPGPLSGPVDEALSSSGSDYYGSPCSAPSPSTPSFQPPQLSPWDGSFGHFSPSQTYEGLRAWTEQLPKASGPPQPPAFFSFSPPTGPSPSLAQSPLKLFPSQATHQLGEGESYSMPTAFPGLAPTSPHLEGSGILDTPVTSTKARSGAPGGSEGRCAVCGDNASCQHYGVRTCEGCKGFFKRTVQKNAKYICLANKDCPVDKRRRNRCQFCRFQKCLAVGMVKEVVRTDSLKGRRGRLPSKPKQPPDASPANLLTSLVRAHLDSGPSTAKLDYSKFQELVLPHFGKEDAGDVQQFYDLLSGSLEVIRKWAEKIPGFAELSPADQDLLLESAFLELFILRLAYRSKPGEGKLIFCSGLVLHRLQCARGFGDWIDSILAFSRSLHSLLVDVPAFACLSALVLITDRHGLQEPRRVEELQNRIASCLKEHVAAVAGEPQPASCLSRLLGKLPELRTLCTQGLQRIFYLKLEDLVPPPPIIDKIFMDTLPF
Description for MDA-MB-231: Antiproliferative activity against human MDA-MB-231 cells assessed as inhibition of cell growth incubated for 24 hrs by MTT assay
Description for T47D: Antiproliferative activity against human T47D cells assessed as inhibition of cell growth incubated for 24 hrs by MTT assay

For the compound `O=C(Nc1ccc(C(=O)N/N=C/c2ccc(Cl)cc2Cl)cc1)Nc1ccc2ncccc2c1`, the inhibition at 50 µM with MCF7 [1] is 70.2%.
Still for that read-out and setting: next, `O=C(N/N=C/c1ccco1)c1cccc2ncccc12`: 50.9%; `COc1ccc(/C=N/NC(=O)c2ccc(NC(=O)Nc3cccc4ncccc34)cc2)cc1`: 72.3%.
On the same count and under the same terms, then `O=C(N/N=C/c1cccc(Cl)c1)c1cccc2ncccc12`, with 56.9%.
Take `O=C(N/N=C/c1ccccc1)c1ccc2ncccc2c1`: the inhibition at 50 µM in the series with MCF7 [1] turned out to be 64.9%.
Take `COc1ccc(/C=N/NC(=O)c2cccc3ncccc23)cc1`: the inhibition at 50 µM in the series on MCF7 [1] came to 67.9%.
On to `CCC/C=N/NC(=O)c1cccc2ncccc12`, for which the IC50 in the series with HepG2 stood at 2.75 µM; in the series on MCF7 [2], 6.83 µM; in [3] it was 39.5 µM; in series [4] it was 45.7 µM; in the series on HCT-116 it was 2.19 µM. The inhibition at 50 µM in the series with MCF7 [1] was determined as 79.2%.
`O=C(Nc1ccc(C(=O)N/N=C/c2ccnc3ccccc23)cc1)Nc1ccc2ncccc2c1`: in the series on MCF7 [1], the inhibition at 50 µM is 1.11%.
Regarding `COc1ccc(/C=N/NC(=O)c2ccc(NC(=O)Nc3ccc4ncccc4c3)cc2)cc1`, the inhibition at 50 µM with MCF7 [1] came out at 37.7%.
Consider `CCCCCCCC(=O)c1c(O)cc(O)cc1CC(=O)OCC` [CYTOSPORONE B], for which the Kd in series [5] was 15.3 µM.
Consider `O=C(O)c1ccc(/C=N/NC(=O)c2ccc3ncccc3c2)cc1`, for which the inhibition at 50 µM in the series with MCF7 [1] turned out to be 48%.
`COc1cccc(/C=N/NC(=O)c2ccc(NC(=O)Nc3ccc4ncccc4c3)cc2)c1`: the inhibition at 50 µM in the series with MCF7 [1] is 1.99%.
On the same count and under the same terms, then `O=C(N/N=C/c1ccco1)c1ccc2ncccc2c1`, with 41.8%; and `Cc1ccccc1/C=N/NC(=O)c1cccc2ncccc12`, with 65.3%; and `Cc1ccc(F)cc1/C=N/NC(=O)c1ccc(NC(=O)Nc2cccc3ncccc23)cc1`, with 68.3%.
Still for that read-out and setting: next, `O=C(N/N=C/c1cccs1)c1cccc2ncccc12`: 45.7%.
In the case of `CCOc1ccccc1-n1c(C(C)N2CCN(C(=O)COc3ccc(Cl)cc3)CC2)nc2ccccc2c1=O` (stereo not given) [ERASTIN], the half-inhibitory concentration (IC50) was greater than 30 µM with HepG2, 20.2 µM in the series with MCF7 [2] and greater than 30 µM with HCT-116.
Turning to `O=C(Nc1ccc(C(=O)N/N=C/c2ccco2)cc1)Nc1ccc2ncccc2c1`, in the series with MCF7 [1], the inhibition at 50 µM came out at 56.2%.
As for `O=C(N/N=C/c1cc(Cl)nc2ccccc12)c1ccc2ncccc2c1`, in the series with MCF7 [1], the inhibition at 50 µM came to 44.1%.
`Cc1cc(C)cc(/C=N/NC(=O)c2ccc3ncccc3c2)c1`: the inhibition at 50 µM in the series with MCF7 [1] came out at 55.2%.
With `O=C(N/N=C/c1ccc(F)cc1)c1ccc2ncccc2c1`, the inhibition at 50 µM in the series with MCF7 [1] was 60.1%.
Take `O=C(N/N=C/c1ccc([N+](=O)[O-])cc1)c1ccc2ncccc2c1`: in the series with MCF7 [1], the inhibition at 50 µM is 63.2%.
Still for that read-out and setting: next, `O=C(N/N=C/c1ccccc1)c1cccc2ncccc12`: 69.3%.
Regarding `O=C(Nc1ccc(C(=O)N/N=C/c2cc(Cl)nc3ccccc23)cc1)Nc1ccc2ncccc2c1`, in the series on MCF7 [1], the inhibition at 50 µM turned out to be 65.4%.
Still for that read-out and setting: then `O=C(Nc1ccc(C(=O)N/N=C/c2ccc(Cl)cc2)cc1)Nc1cccc2ncccc12`, with 53.4%.
The same measure, in the same setting: then `COc1ccc(/C=N/NC(=O)c2ccc3ncccc3c2)cc1`, with 66.2%.
For `COc1ccc(/C=N/NC(=O)c2ccc(NC(=O)Nc3ccc4ncccc4c3)cc2)c(O)c1`, the inhibition at 50 µM in the series with MCF7 [1] came out at 1.01%.
Same read-out and setting: next, `Cc1cccc(/C=N/NC(=O)c2ccc(NC(=O)Nc3cccc4ncccc34)cc2)c1`: 68.6%; `CCC/C=N/NC(=O)c1ccc2ncccc2c1`: 65.1%; `Cc1cc(C)cc(/C=N/NC(=O)c2cccc3ncccc23)c1`: 68.5%.
Same read-out and setting: then `COc1ccc(/C=N/NC(=O)c2ccc(NC(=O)Nc3ccc4ncccc4c3)cc2)cc1OC`, with 1.26%.
On the same count and under the same terms, next, `O=C(Nc1ccc(C(=O)N/N=C/c2ccc(F)cc2F)cc1)Nc1ccc2ncccc2c1`: 23.2%.
Consider `Cc1cccc(/C=N/NC(=O)c2ccc(NC(=O)Nc3ccc4ncccc4c3)cc2)c1`, for which the inhibition at 50 µM in the series on MCF7 [1] was found to be 68.2%.
For the compound `O=C(Nc1ccc(C(=O)N/N=C/c2cccc(Cl)c2)cc1)Nc1cccc2ncccc12`, the IC50 in the series with HepG2 was 15.6 µM; in the series on MCF7 [2] it was 11.4 µM; in [3], greater than 50 µM; in [4] it was greater than 50 µM; in the series with HCT-116, 10.7 µM. The inhibition at 50 µM in the series on MCF7 [1] stood at 76.2%.
On to `O=C(Nc1ccc(C(=O)N/N=C/c2ccc(Cl)cc2Cl)cc1)Nc1cccc2ncccc12`, for which the inhibition at 50 µM in the series on MCF7 [1] is 74.6%.
In the case of `CC(C)c1ccc(/C=N/NC(=O)c2ccc(NC(=O)Nc3cccc4ncccc34)cc2)cc1`, the inhibition at 50 µM with MCF7 [1] is 65.9%.
As to `O=C(Nc1ccc(C(=O)N/N=C/c2cc(Cl)ccc2Cl)cc1)Nc1ccc2ncccc2c1`, the IC50 is 9.25 µM in the series on HepG2; 8.71 µM with T47D; 4.77 µM with MCF7 [2]; greater than 50 µM in [3]; 40.1 µM in [4]; 8.24 µM with HCT-116. The inhibition at 50 µM in the series on MCF7 [1] was determined as 75.7%.
As for `O=C(N/N=C/c1ccc(F)cc1F)c1ccc2ncccc2c1`, in the series with MCF7 [1], the inhibition at 50 µM stood at 70.8%.
As for `Cc1ccc(/C=N/NC(=O)c2ccc3ncccc3c2)cc1`, the IC50 amounted to 28.1 µM in the series on HepG2; 22.3 µM in the series with MCF7 [2]; 40.6 µM in series [3]; 39.6 µM in series [4]; 25.3 µM in the series on HCT-116. The inhibition at 50 µM in the series on MCF7 [1] came to 76.8%.
With `O=C(N/N=C/c1ccc(Cl)cc1)c1ccc2ncccc2c1`, the IC50 is 13.9 µM in the series on HepG2; 17.4 µM in the series on MCF7 [2]; greater than 50 µM in [3]; greater than 50 µM in [4]; 22.9 µM with HCT-116. Further, the inhibition at 50 µM in the series with MCF7 [1] is 79%.
Take `COc1cc(/C=N/NC(=O)c2ccc(NC(=O)Nc3ccc4ncccc4c3)cc2)cc(OC)c1`: the inhibition at 50 µM in the series with MCF7 [1] worked out at 56.4%.
On to `O=C(N/N=C/c1ccnc2ccccc12)c1ccc2ncccc2c1`, for which the inhibition at 50 µM in the series with MCF7 [1] was found to be 55.3%.
In the case of `O=C(Nc1ccc(C(=O)N/N=C/c2cccs2)cc1)Nc1ccc2ncccc2c1`, the inhibition at 50 µM in the series on MCF7 [1] amounted to 15.1%.
Consider `Cc1cccc(/C=N/NC(=O)c2ccc3ncccc3c2)c1`, for which, in the series on MCF7 [1], the inhibition at 50 µM was 50.1%.
On the same count and under the same terms, then `O=C(Nc1ccc(C(=O)N/N=C/c2ccc(F)cc2F)cc1)Nc1cccc2ncccc12`, with 73.3%; and `CCC/C=N/NC(=O)c1ccc(NC(=O)Nc2ccc3ncccc3c2)cc1`, with 46.6%; and `COc1cccc(/C=N/NC(=O)c2ccc(NC(=O)Nc3cccc4ncccc34)cc2)c1`, with 59%.
As to `O=C(Nc1ccc(C(=O)N/N=C/c2ccc(Cl)cc2)cc1)Nc1ccc2ncccc2c1`, the inhibition at 50 µM with MCF7 [1] stood at 66.4%.
Turning to `COc1ccc(/C=N/NC(=O)c2ccc3ncccc3c2)c(O)c1`, the inhibition at 50 µM with MCF7 [1] turned out to be 71.2%.
On the same count and under the same terms, next, `Cc1cc(C)cc(/C=N/NC(=O)c2ccc(NC(=O)Nc3ccc4ncccc4c3)cc2)c1`: 19%.
On to `O=C(N/N=C/c1cccs1)c1ccc2ncccc2c1`, for which the inhibition at 50 µM in the series with MCF7 [1] was 64.9%.
Still for that read-out and setting: then `O=C(Nc1ccc(C(=O)N/N=C/c2c[nH]c3ccccc23)cc1)Nc1cccc2ncccc12`, with 30.2%; and `Cc1ccc(/C=N/NC(=O)c2cccc3ncccc23)cc1`, with 60.5%.
Turning to `CC/C(=C(\c1ccccc1)c1ccc(OCCN(C)C)cc1)c1ccccc1` [TAMOXIFEN], the results for the IC50 in the series on MDA-MB-231 and in the series on MCF7 [2] were 20.8 µM and 7.68 µM, respectively.
On to `O=C(N/N=C/c1cc(Cl)ccc1Cl)c1ccc2ncccc2c1`, for which the inhibition at 50 µM in the series on MCF7 [1] turned out to be 64.7%.
Still for that read-out and setting: then `Cc1ccc(F)cc1/C=N/NC(=O)c1ccc2ncccc2c1`, with 73.5%.

The inhibition is the change of the read-out against control, counted positive when it falls. As usually defined, the IC50 is the concentration needed to halve the response being measured. What is called Kd is a measure of binding affinity in units of concentration.

These data come from ChEMBL document CHEMBL6182894, “Design, synthesis, and biological evaluation of quinolinyl-ureido-phenyl-hydrazide derivatives and quinolinyl-hydrazide derivatives as anticancer agents targeting Nur77-mediated ferroptosis” (Eur J Med Chem, 2025).
